Experiments:
[1] = target: HIV-1 reverse transcriptase (Human immunodeficiency virus type 1 group M subtype B, UniProt P04585); assay: RT inhibition assay, incorporation of [32P]GTP into poly(rC)/oligo(dG) template primer; format: biochemical; conditions: poly(rC):oligo(dG) as the template primer; mean of at least two experiments; read-out: IC50 inhibitory activity versus HIV-1 reverse transcriptase
Experimental: RT Inhibition Assay. Inhibition of purified recombinant reverse transcriptase was measured by the incorporation of [^32P]GTP into poly(rC)/oligo(dG) homopolymer template primers, as previously described (Cushman, M., et al., J. Med. Chem. 1996, 39, 3217-3227).

HIV-1IIIB = assay: MTT assay, HIV-1IIIB in MT-4 cells; format: cell-based; conditions: for SI (CC50/EC50) MT-4 cells: CC50/EC50 ratio, HIV-1IIIB in MT-4 cells; for EC50: Human immunodeficiency virus 1, MT4, inhibition of cytopathicity of HIV-1IIIB in MT-4 cells
Experimental: (§1) In Vitro Antiviral Assay. Evaluation of the antiviral activity of compounds against HIV- 1RF infection in CEM-SS cells was performed using the XTT cytoprotection assay, as previously described (Buckheit, R. W. Jr., et al., Antiviral Res. 1995, 26, 117-132). Evaluation of the antiviral activity of compounds against HIV-1IIIB and HIV-2ROD in MT-4 cells was performed using the MTT assay, as previously described (Rice, W. G. and Bader, J. P., Adv. Pharmacol. (San Diego) 1995, 33, 389-438).

[2] = Cytotoxicity for mock-infected MT-4 cells; format: cell-based; conditions: human
Experimental: as §1
(§2) Biological Results. The antiviral activities of the ADAMs were evaluated by determining their ability to inhibit the enzymatic activity of HIV-1 RT in vitro (IC50) and protect HIV-infected cells from the cytopathic effects (EC50) of two viral strains (HIV-1RF and HIV-1IIIB). The cytotoxicities (CC50) of the ADAMs were determined on CEM-SS cells and MT-4 cells.

HIV-1RF = assay: XTT cytoprotection assay, HIV-1RF infection in CEM-SS cells; format: cell-based; conditions: for SI (CC50/EC50) CEM-SS cells: CC50/EC50 ratio, HIV-1RF in CEM-SS cells; for EC50: Human immunodeficiency virus 1, inhibition of cytopathicity of HIV-1RF in CEM-SS cells
Experimental: as §1

[3] = Cytotoxicity for mock-infected CEM-SS cells; format: cell-based; conditions: human
Experimental: as §1, §2

SMILES	IC50 [1]	SI (CC50/EC50) MT-4 cells (HIV-1IIIB)	EC50 (HIV-1IIIB)	CC50 [2]	SI (CC50/EC50) CEM-SS cells (HIV-1RF)	EC50 (HIV-1RF)	CC50 [3]
CON=C(F)c1cc(/C(=C\CCCc2nnc(C)o2)c2cc(C)c3oc(=O)n(C)c3c2)cc(C)c1OC [ADAM 5, 5-[(1E)-1-(3,7-Dimethyl-2-oxo-2,3-dihydro-1,3-benzoxazol-5-yl)-5-(5-methyl-1,3,4-oxadiazol-2-yl)pent-1-en-1-yl]-N,2-dimethoxy-3-methylbenzenecarboximidoyl Fluoride]	3.4 µM	76	0.35 µM	26.5 µM	13	0.5 µM	6.5 µM
CON=C(F)c1cc(/C(=C\CCCN2CCOC2=O)c2cc(C)c3oc(=O)n(C)c3c2)cc(C)c1OC [ADAM 6, 5-[(1E)-1-(3,7-Dimethyl-2-oxo-2,3-dihydro-1,3-benzoxazol-5-yl)-5-(2-oxo-1,3-oxazolidin-3-yl)pent-1-en-1-yl]-N,2-dimethoxy-3-methylbenzenecarboximidoyl Fluoride]	2.37 µM		> 7.53 µM	7.53 µM		> 100 µM	5.04 µM
CON=C(F)c1cc(/C(=C\CCCc2nnc(C)o2)c2cc(C)c3onc(OC)c3c2)cc(C)c1OC [ADAM 7, N,2-Dimethoxy-5-[(1Z)-1-(3-methoxy-7-methyl-1,2-benzoxazol-5-yl)-5-(5-methyl-1,3,4-oxadiazol-2-yl)pent-1-en-1-yl]-3-methylbenzenecarboximidoyl Fluoride]	1.4 µM	6	2.86 µM	15.8 µM	7	1.9 µM	13.9 µM
CON=C(F)c1cc(/C(=C\CCCc2nc(C)no2)c2cc(C)c3onc(OC)c3c2)cc(C)c1OC [ADAM 8, N,2-Dimethoxy-5-[(1Z)-1-(3-methoxy-7-methyl-1,2-benzoxazol-5-yl)-5-(3-methyl-1,2,4-oxadiazol-5-yl)pent-1-en-1-yl]-3-methylbenzenecarboximidoyl Fluoride]	1.85 µM	2	4.07 µM	9.66 µM	3	2.04 µM	5.39 µM
CON=C(F)c1cc(/C(=C\CCCN2CCOC2=O)c2cc(C)c3onc(OC)c3c2)cc(C)c1OC [ADAM 9, N,2-Dimethoxy-5-[(1Z)-1-(3-methoxy-7-methyl-1,2-benzoxazol-5-yl)-5-(2-oxo-1,3-oxazolidin-3-yl)pent-1-en-1-yl]-3-methylbenzenecarboximidoyl Fluoride]	46.7 µM		> 26.1 µM	26.1 µM		> 100 µM	17.8 µM
CON=C(F)c1cc(/C(=C\CCCc2nnc(C)o2)c2cccc(C#N)c2)cc(C)c1OC [ADAM 10, 5-[(1Z)-1-(3-Cyanophenyl)-5-(5-methyl-1,3,4-oxadiazol-2-yl)pent-1-en-1-yl]-N,2-dimethoxy-3-methylbenzenecarboximidoyl Fluoride]	37.1 µM		> 1.09 µM	1.07 µM		> 100 µM	1.8 µM
CON=C(F)c1cc(/C(=C\CCCc2nc(C)no2)c2cccc(C#N)c2)cc(C)c1OC [ADAM 11, 5-[(1Z)-1-(3-Cyanophenyl)-5-(3-methyl-1,2,4-oxadiazol-5-yl)pent-1-en-1-yl]-N,2-dimethoxy-3-methylbenzenecarboximidoyl Fluoride]	5.4 µM		> 4.04 µM	4.04 µM		> 100 µM	3.5 µM
CON=C(F)c1cc(/C(=C\CCCN2CCOC2=O)c2cccc(C#N)c2)cc(C)c1OC [ADAM 12, 5-[(1Z)-1-(3-Cyanophenyl)-5-(2-oxo-1,3-oxazolidin-3-yl)pent-1-en-1-yl]-N,2-dimethoxy-3-methylbenzenecarboximidoyl Fluoride]	> 100 µM		> 1.66 µM	1.66 µM		> 100 µM	1.66 µM
CON=C(F)c1cc(/C(=C\CCCc2nnc(C)o2)c2ccc(C#N)cc2)cc(C)c1OC [ADAM 13, 5-[(1Z)-1-(4-Cyanophenyl)-5-(5-methyl-1,3,4-oxadiazol-2-yl)pent-1-en-1-yl]-N,2-dimethoxy-3-methylbenzenecarboximidoyl Fluoride]	44.4 µM	≦1	≥ 9 µM	11.4 µM		> 100 µM	6.7 µM
CON=C(F)c1cc(/C(=C\CCCc2nc(C)no2)c2ccc(C#N)cc2)cc(C)c1OC [ADAM 14, 5-[(1Z)-1-(4-Cyanophenyl)-5-(3-methyl-1,2,4-oxadiazol-5-yl)pent-1-en-1-yl]-N,2-dimethoxy-3-methylbenzenecarboximidoyl Fluoride]	0.91 µM	4	5.55 µM	20.4 µM	7	2.03 µM	13.4 µM
CON=C(F)c1cc(/C(=C\CCCN2CCOC2=O)c2ccc(C#N)cc2)cc(C)c1OC [ADAM 15, 5-[(1Z)-1-(4-Cyanophenyl)-5-(2-oxo-1,3-oxazolidin-3-yl)pent-1-en-1-yl]-N,2-dimethoxy-3-methylbenzenecarboximidoyl Fluoride]	> 100 µM		> 21.1 µM	21.1 µM		> 100 µM	6.7 µM
CON=C(Cl)c1cc(/C(=C\CCCc2nnc(C)o2)c2cc(C)c3oc(=O)n(C)c3c2)cc(C)c1OC [ADAM 16, 5-[(1E)-1-(3,7-Dimethyl-2-oxo-2,3-dihydro-1,3-benzoxazol-5-yl)-5-(5-methyl-1,3,4-oxadiazol-2-yl)pent-1-en-1-yl]-N,2-dimethoxy-3-methylbenzenecarboximidoyl Chloride]	8.2 µM	27	0.74 µM	19.9 µM	4	1.1 µM	4.7 µM
CON=C(Cl)c1cc(/C(=C\CCCc2nc(C)no2)c2cc(C)c3oc(=O)n(C)c3c2)cc(C)c1OC [ADAM 17, 5-[(1E)-1-(3,7-Dimethyl-2-oxo-2,3-dihydro-1,3-benzoxazol-5-yl)-5-(3-methyl-1,2,4-oxadiazol-5-yl)pent-1-en-1-yl]-N,2-dimethoxy-3-methylbenzenecarboximidoyl Chloride]	4.19 µM	59	0.5 µM	29.4 µM	5	0.51 µM	2.37 µM
CON=C(Cl)c1cc(/C(=C\CCCN2CCOC2=O)c2cc(C)c3oc(=O)n(C)c3c2)cc(C)c1OC [ADAM 18, 5-[(1E)-1-(3,7-Dimethyl-2-oxo-2,3-dihydro-1,3-benzoxazol-5-yl)-5-(2-oxo-1,3-oxazolidin-3-yl)pent-1-en-1-yl]-N,2-dimethoxy-3-methylbenzenecarboximidoyl Chloride]	62.9 µM		> 5.19 µM	5.19 µM		> 100 µM	5.99 µM
CON=C(Cl)c1cc(/C(=C\CCCc2nnc(C)o2)c2cc(C)c3onc(OC)c3c2)cc(C)c1OC [ADAM 19, N,2-Dimethoxy-5-[(1Z)-1-(3-methoxy-7-methyl-1,2-benzoxazol-5-yl)-5-(5-methyl-1,3,4-oxadiazol-2-yl)pent-1-en-1-yl]-3-methylbenzenecarboximidoyl Chloride]	33.8 µM	≦2	≥ 7.03 µM	17.5 µM	2	5.2 µM	9.7 µM
CON=C(Cl)c1cc(/C(=C\CCCc2nc(C)no2)c2cc(C)c3onc(OC)c3c2)cc(C)c1OC [ADAM 20, N,2-Dimethoxy-5-[(1Z)-1-(3-methoxy-7-methyl-1,2-benzoxazol-5-yl)-5-(3-methyl-1,2,4-oxadiazol-5-yl)pent-1-en-1-yl]-3-methylbenzenecarboximidoyl Chloride]	8.03 µM	5	4.21 µM	21.2 µM	7	1.7 µM	11.4 µM
CON=C(Cl)c1cc(/C(=C\CCCc2nnc(C)o2)c2cccc(C#N)c2)cc(C)c1OC [ADAM 21, 5-[(1Z)-1-(3-Cyanophenyl)-5-(5-methyl-1,3,4-oxadiazol-2-yl)pent-1-en-1-yl]-N,2-dimethoxy-3-methylbenzenecarboximidoyl Chloride]	33.3 µM	6	2.66 µM	22.3 µM	2	5.8 µM	13.2 µM
CON=C(Cl)c1cc(/C(=C\CCCc2nc(C)no2)c2cccc(C#N)c2)cc(C)c1OC [ADAM 22, 5-[(1Z)-1-(3-Cyanophenyl)-5-(3-methyl-1,2,4-oxadiazol-5-yl)pent-1-en-1-yl]-N,2-dimethoxy-3-methylbenzenecarboximidoyl Chloride]	> 100 µM	41	2.69 µM	110 µM	7	3.5 µM	25.5 µM

— US20170267667A1, “[…] AS NON-NUCLEOSIDE REVERSE TRANSCRIPTASE INHIBITORS FOR ANTI-HIV-1 CHEMOTHERAPY” (Purdue Research Foundation, priority 2016, published 2017)
